# Source: patent US7078418B1, “1-aziridino-1-hydroxyiminomethyl-derivates, method for the production thereof and medicaments containing said compounds” (priority 1999, dated 2006)
# Tests used:
# HT29 = assay: monolayer cytotoxicity test (modified propidium iodide assay), HT29; type: cell-based; conditions: for IC50 antitumoral activity: Colon
# From the text: (§1) The compounds pursuant to the invention with the general formula I show antitumoral activity. The antitumoral activities of some compounds pursuant to the invention in the monolayer cytotoxicity test on selected cell lines are shown in Table 1. The low susceptibility of fibroblasts and endothelial cells with the use of the compounds pursuant to the invention is surprising.
# GXF 251L = assay: monolayer cytotoxicity test (modified propidium iodide assay), GXF 251L; type: cell-based; conditions: Stomach
# From the text: as §1
# LXFL 529 = assay: monolayer cytotoxicity test (modified propidium iodide assay), LXFL 529; type: cell-based; conditions: Lung
# From the text: as §1
# 401 NL = assay: monolayer cytotoxicity test (modified propidium iodide assay), 401 NL; type: cell-based; conditions: Breast
# From the text: as §1
# 944 LL = assay: monolayer cytotoxicity test (modified propidium iodide assay), 944 LL; type: cell-based; conditions: Kidney
# From the text: as §1
# 1138 L = assay: monolayer cytotoxicity test (modified propidium iodide assay), 1138 L; type: cell-based; conditions: Uterus
# From the text: as §1
# [1] = tested on: 12 tumor cell lines (Table 3); assay: cells; conditions: read-out: mean IC50
# [2] = tested on: 12 tumor cell lines (Table 3); conditions: mean over 12 cell lines of Table 3
# [3] = read-out: IC50 antitumoral activity
SMILES,"IC50 (HT29; Homo sapiens, HT-29, Colon, read-out: IC50 antitumoral activity) [µg/mL]",IC50 (GXF 251L; [3]) [µg/mL],"IC50 (LXFL 529; Homo sapiens, read-out: IC50 antitumoral activity) [µg/mL]",IC50 (401 NL; [3]) [µg/mL],IC50 (944 LL; [3]) [µg/mL],IC50 (1138 L; [3]) [µg/mL],IC50 [1] [µg/mL],IC50 antitumoral activity (HT29) [µg/mL],IC50 antitumoral activity (GXF 251L) [µg/mL],IC50 antitumoral activity (LXFL 529) [µg/mL],IC50 antitumoral activity (401 NL) [µg/mL],IC50 antitumoral activity (944 LL) [µg/mL],IC50 antitumoral activity (1138 L) [µg/mL],mean IC50 [2] [µg/mL]
"O/N=C(/C(=N/O)N1CC1)N1CC1 [Compound 1, 1,1′-[1,2-bis(hydroxyimino)-1,2-ethanediyl]bisaziridine]",0.486,0.781,0.441,0.04,0.923,0.173,–,–,–,–,–,–,–,–
"O=c1[nH]cc(F)c(=O)[nH]1 [Compound 5FU, 5-fluorouracil]",–,–,–,–,–,–,0.054,–,–,–,–,–,–,–
"ON=C(c1cccc(C(=NO)N2CC2)n1)N1CC1 [Compound 6, 2,6-Bis(1-aziridino-1-hydroxyiminomethyl)pyridine]",–,–,–,–,–,–,–,0.117,0.020,0.027,0.207,0.115,0.014,0.030
"ON=C(c1ccc(C(=NO)N2CC2)cc1)N1CC1 [Compound 7, 1,4-Bis(1-aziridino-1-hydroxyiminomethyl)benzene]",–,–,–,–,–,–,–,0.258,0.542,0.038,0.018,0.348,0.038,–
"ON=C(c1cccc(C(=NO)N2CC2)c1)N1CC1 [Compound 9, 1,3-Bis(1-aziridino-1-hydroxyiminomethyl)benzene]",–,–,–,–,–,–,–,0.329,1.506,0.063,0.060,0.788,0.066,–
"ON=C(c1cc(C(=NO)N2CC2)cc(C(=NO)N2CC2)c1)N1CC1 [Compound 10, 1,3,5-Tris(1-aziridino-1-hydroxyiminomethyl)benzene]",–,–,–,–,–,–,–,0.670,3.964,0.100,0.043,0.750,0.111,–
"ON=C(c1ccc(C(=NO)N2CC2)nc1)N1CC1 [Compound 14, 2,5-Bis(1-aziridino-1-hydroxyiminomethyl)pyridine]",–,–,–,–,–,–,–,0.200,0.717,0.006,0.011,0.198,0.034,–
"ON=C(c1ccc(C(=NO)N2CC2)o1)N1CC1 [Compound 16, 2,5-Bis(1-aziridino-1-hydroxyiminomethyl)furan]",–,–,–,–,–,–,–,0.481,1.661,0.099,0.039,1.359,0.073,–
